Source: patent US20220071996A1, “ORAL FORMULATIONS OF BRANAPLAM” (NOVARTIS AG, priority 2018, published 2022)

Assays:
[1] = tested on: infants with Type I Spinal Muscular Atrophy; experiment: open-label first-in-human proof of concept study of oral branaplam; type: in vivo
Description: Clinical Trial: An Open-Label Multi-Part First-In-Human Proof of Concept Study of Oral Branaplam in Infants with Type I Spinal Muscular Atrophy. • Part 1: The aim of part one of this study was to determine the safety and tolerability of ascending weekly doses and to estimate the maximum tolerated dose (MTD) of oral/enteral branaplam in infants with Type 1 SMA. All patients had exactly 2 copies of the SMN2 gene. • In part one of the study, patients were dosed once weekly with branaplam. The branaplam doses were escalated in subsequent cohorts until MTD was determined or when PK results confirmed that the MTD could not be reached due to a potential pharmacokinetic exposure plateau at higher doses. A decision to dose escalate the next cohort was made after safety data had been collected for 14 days following the first dose. Patients completing 13 weeks of treatment were considered to have completed the study. The starting dose was 6 mg/m^2 (approximately 0.3125 mg/kg). Subsequent doses were 12 mg/m^2, 24 mg/m^2, 48 mg/m^2 and 60 mg/m^2 (approximately 0.625 mg/kg, 1.25 mg/kg, 2.5 mg/kg and 3.125 mg/kg, respectively). Each cohort had 2-3 patients. All doses are of branaplam in free form. 14 patients were enrolled in Part 1; 13 patients were exposed to branaplam. The duration of exposure ranged from 4-33 months, 7 patients remain in the study. Six of the 7 patients are receiving 60 mg/m^2, 1 patient is receiving 48 mg/m^2.
Preliminary Safety Results • AEs/SAEs: 455 AEs were reported in the 13 patients; the vast majority were attributed to the underlying disease. Seventy-nine SAEs occurred associated with 59 hospitalizations of which 39 of the 59 hospitalizations were for respiratory events or infections. • Deaths: A total of five patients have died, all from ventilatory failure due to their underlying disease.
Part 2 of the study will enroll patients into 2 cohorts: cohort 1 at a 0.625 mg/kg dose and cohort 2 at a 2.5 mg/kg dose. The selected dose levels of 0.625 mg/kg and 2.5 mg/kg are based on all safety data from Part 1, as well as, all data from chronic juvenile toxicity studies available at the time of initiation of Part 2. Six to 10 patients will be enrolled in cohorts 1 and 2. A total of a minimum of 12 and maximum of 20 patients will be enrolled and treated for 52 weeks. • Starting dose: The dose of 0.625 mg/kg (corresponding to 12 mg/m^2) is chosen as a starting dose in Part 2 based on safety and preliminary efficacy data collected in Part 1 of the study. Indeed, following an USM treatment with branaplam continued but at a reduced dose of 6 mg/m^2 (0.3125 mg/kg) for all patients who had completed the initial 13 weeks of treatment. This dose was predicted to be efficacious based upon the preliminary clinical (CHOP INTEND) response of patients in Cohort 1. […] For that reason and also given the preliminary efficacy data collected in patients treated with branaplam at 12 mg/m^2 (0.625 mg/kg) it was decided to take this dose as a starting dose in Part 2. • Second dose: The dose of 2.5 mg/kg (corresponding to 48 mg/m^2) is selected as the second dose in Part 2 being 4-fold higher than the starting dose of 0.625 mg/kg (corresponding to 12 mg/m^2). The difference between 0.625 mg/kg and 2.5 mg/kg is considered to be sufficient to ensure appropriate separation in terms of systemic branaplam exposure and potentially also of efficacy endpoints.

[2] = phase solubility of branaplam in 2-hydroxypropyl-beta-cyclodextrin solutions; type: physicochemical; conditions: room temperature
[3] = tested on: juvenile dog; experiment: 52-week chronic juvenile dog study; type: in vivo

## CC1(C)CC(Oc2ccc(-c3ccc(-c4cn[nH]c4)cc3O)nn2)CC(C)(C)N1 [branaplam, 5-(1H-pyrazol-4-yl)-2-(6-((2,2,6,6-tetramethylpiperidin-4-yl)oxy)pyridazin-3-yl)phenol]
[1]; 13 weeks of treatment
  decrease of CHOP INTEND scores: no significant decrease was observed in any patient
[1]; all from ventilatory failure due to underlying disease
  Deaths (patients): five
[1]; human, in vivo
  AEs reported: 455
  hospitalizations associated with SAEs: 59
  hospitalizations for respiratory events or infections: 39
[1]; in vivo
  Clinical status: do not follow the normal disease course for Type 1 SMA patients
  SAEs: Seventy-nine
  patients who reached a CHOP INTEND score of >36: Eight
  patients without feeding support after more than one year of treatment: six
  patients without feeding support after more than two years of treatment: five
  safety events following dose reduction: decrease of motor skills, generalized motor weakness and increased respiratory muscle weakness
  treated patients without feeding support at around 8 months of age: Ten
[1]; in vivo, po
  dose limiting toxicity: No dose limiting toxicity was observed
[1]; natural history median age 13.5 months
  Death or permanent ventilation endpoint: majority of treated patients have not met this endpoint
[1]; of the 11 patients evaluated
  HINE Section 2: patients who achieved independent sitting: one
[1]; po, 2184 h
  patients with progressive and substantial increase of CHOP INTEND scores: 7
[1]; treated for more than two years
  patients without any ventilatory support with BiPAP: Four
[2]
  branaplam dissolved using 17.5% HP-b-CD: about 10 mg/mL
[3]
  nerve findings: findings of nerve degeneration
